Starred links: 1 amine or outer side, 2 acyl side, 3 side chain; linkers in the order of their positions; H or OH if unused. Non-standard residues stand in square brackets, D forms with d. Residues, ends and D or L forms follow the SMILES beside them. Groups on a side chain read outwards from the residue. *: point of attachment. C18 diacid = O=C(O)CCCCCCCCCCCCCCCCC(=O)*; γGlu = O=C(O)[C@H](CCC(=O)[*:2])N[*:1]; Ac4c = NC1(C(=O)O)CCC1; AEEA = NCCOCCOCC(=O)O; Aib = CC(C)(N)C(=O)O

The target of the assay is T1, human GLP-1 receptor (Homo sapiens, UniProt P43220).
T1 construct: expressed in transfected cells; host or cells: membranes of BHK cells (parent BHKTS13), clone FCW467-12A
T1 sequence (P43220 24-463): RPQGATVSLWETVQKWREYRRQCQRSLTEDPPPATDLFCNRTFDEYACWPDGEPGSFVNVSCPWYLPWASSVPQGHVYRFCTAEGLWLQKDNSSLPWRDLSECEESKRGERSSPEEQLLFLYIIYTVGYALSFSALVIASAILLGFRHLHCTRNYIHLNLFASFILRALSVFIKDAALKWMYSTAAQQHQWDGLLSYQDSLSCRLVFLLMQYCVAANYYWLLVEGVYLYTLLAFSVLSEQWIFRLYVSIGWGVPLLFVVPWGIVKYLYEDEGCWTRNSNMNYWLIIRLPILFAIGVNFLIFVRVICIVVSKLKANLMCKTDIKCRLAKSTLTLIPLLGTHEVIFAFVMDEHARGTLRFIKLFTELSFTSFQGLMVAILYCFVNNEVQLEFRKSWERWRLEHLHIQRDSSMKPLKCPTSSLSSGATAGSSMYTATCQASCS
Put plainly: Assay (II)(a) GLP-1 receptor binding, 125I-GLP-1 displacement SPA on BHK membranes. The conditions noted are these: without presence of serum albumin; read-out: GLP-1R IC50 (nM) [Assay (II)(a)]. The gist of the method: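 Membranes from BHK cells (clone FCW467-12A) stably expressing human GLP-1R were incubated with serially diluted compounds (8×10EE-13 to 8×10EE-7 M before addition) and [125I]-GLP-1-(7-36)NH2 with WGA SPA beads, 2 h at 30° C, pH 7.4. IC50 taken from displacement by non-linear regression. Run at ≤0.001% or 2.0% final serum albumin.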
For the compound `CC[C@H](C)[C@H](NC(=O)[C@H](CC(C)C)NC(=O)[C@H](Cc1c[nH]c2ccccc12)NC(=O)[C@H](CCC(N)=O)NC(=O)[C@@H](NC(=O)[C@H](Cc1ccccc1)NC(=O)[C@H](CCC(=O)O)NC(=O)[C@H](CCCNC(=N)N)NC(=O)[C@H](C)NC(=O)[C@H](CCCNC(=N)N)NC(=O)[C@H](CCCNC(=N)N)NC(=O)[C@H](CO)NC(=O)[C@H](CCC(=O)O)NC(=O)[C@H](CC(C)C)NC(=O)[C@H](Cc1ccc(O)cc1)NC(=O)[C@H](CCCCN)NC(=O)[C@H](CO)NC(=O)[C@H](CC(C)C)NC(=O)[C@H](CC(=O)O)NC(=O)[C@H](CO)NC(=O)[C@@H](NC(=O)[C@H](Cc1ccccc1)NC(=O)[C@@H](NC(=O)CNC(=O)[C@H](CCC(N)=O)NC(=O)C(C)(C)NC(=O)[C@@H](N)Cc1c[nH]cn1)[C@@H](C)O)[C@@H](C)O)C(C)C)C(=O)N[C@@H](CCCCNC(=O)CC[C@H](NC(=O)CC[C@H](NC(=O)COCCOCCNC(=O)COCCOCCNC(=O)CC[C@H](NC(=O)CC[C@H](NC(=O)CCCCCCCCCCCCCCCCC(=O)O)C(=O)O)C(=O)O)C(=O)O)C(=O)O)C(=O)N[C@H](C(N)=O)[C@@H](C)O` [Chem. 25, N^ε28-[(4S)-4-carboxy-4-[[(4S)-4-carboxy-4-[[2-[2-[2-[[2-[2-[2-[[(4S)-4-carboxy-4-[[(4S)-4-carboxy-4-(17-carboxyheptadecanoylamino)butanoyl]amino]butanoyl]amino]ethoxy]ethoxy]acetyl]amino]ethoxy]ethoxy]acetyl]amino]butanoyl]amino]butanoyl]-[Aib2,Leu10,Glu15,Arg20,Glu21,Ile27,Lys28]-Glucagon amide] (H-H[Aib]QGTFTSDLSKYLESRRAREFVQWLIK([γGlu-γGlu-AEEA-AEEA-γGlu-γGlu-C18 diacid])T-NH2; N-terminus assumed), the IC50 is 0.1 nM. Next, `CC[C@H](C)[C@H](NC(=O)[C@H](CC(=O)O)NC(=O)[C@H](CO)NC(=O)[C@@H](NC(=O)[C@H](Cc1ccccc1)NC(=O)[C@@H](NC(=O)CNC(=O)[C@H](CCC(N)=O)NC(=O)C1(NC(=O)[C@@H](N)Cc2c[nH]cn2)CCC1)[C@@H](C)O)[C@@H](C)O)C(=O)N[C@@H](CO)C(=O)N[C@@H](CCCCN)C(=O)N[C@@H](Cc1ccc(O)cc1)C(=O)N[C@@H](CC(C)C)C(=O)N[C@@H](CCC(=O)O)C(=O)N[C@@H](CO)C(=O)N[C@@H](CCCNC(=N)N)C(=O)N[C@@H](CCCNC(=N)N)C(=O)N[C@@H](C)C(=O)N[C@@H](CCCNC(=N)N)C(=O)N[C@@H](CCC(=O)O)C(=O)N[C@@H](Cc1ccccc1)C(=O)N[C@H](C(=O)N[C@@H](CCC(N)=O)C(=O)N[C@@H](Cc1c[nH]c2ccccc12)C(=O)N[C@@H](CC(C)C)C(=O)N[C@H](C(=O)N[C@@H](CCCCNC(=O)CC[C@H](NC(=O)CC[C@H](NC(=O)COCCOCCNC(=O)COCCOCCNC(=O)CC[C@H](NC(=O)CC[C@H](NC(=O)CCCCCCCCCCCCCCCCC(=O)O)C(=O)O)C(=O)O)C(=O)O)C(=O)O)C(=O)N[C@H](C(N)=O)[C@@H](C)O)[C@@H](C)CC)C(C)C` [Chem. 26, N^ε28-[(4S)-4-carboxy-4-[[(4S)-4-carboxy-4-[[2-[2-[2-[[2-[2-[2-[[(4S)-4-carboxy-4-[[(4S)-4-carboxy-4-(17-carboxyheptadecanoylamino)butanoyl]amino]butanoyl]amino]ethoxy]ethoxy]acetyl]amino]ethoxy]ethoxy]acetyl]amino]butanoyl]amino]butanoyl]-[Acb2,Ile10,Glu15,Arg20,Glu21,Ile27,Lys28]-Glucagon amide] (H-H[Ac4c]QGTFTSDISKYLESRRAREFVQWLIK([γGlu-γGlu-AEEA-AEEA-γGlu-γGlu-C18 diacid])T-NH2; N-terminus assumed): 0.4 nM; `CC[C@H](C)[C@H](NC(=O)[C@H](CC(C)C)NC(=O)[C@H](Cc1c[nH]c2ccccc12)NC(=O)[C@H](CCC(N)=O)NC(=O)[C@@H](NC(=O)[C@H](Cc1ccccc1)NC(=O)[C@H](CC(=O)O)NC(=O)[C@H](CCCNC(=N)N)NC(=O)[C@H](C)NC(=O)[C@H](CCCNC(=N)N)NC(=O)[C@H](CCCNC(=N)N)NC(=O)[C@H](C)NC(=O)[C@H](CC(=O)O)NC(=O)[C@H](CC(C)C)NC(=O)[C@H](Cc1ccc(O)cc1)NC(=O)[C@H](CCCCN)NC(=O)[C@H](CO)NC(=O)[C@H](CC(C)C)NC(=O)[C@H](CC(=O)O)NC(=O)[C@H](CO)NC(=O)[C@@H](NC(=O)[C@H](Cc1ccccc1)NC(=O)[C@@H](NC(=O)CNC(=O)[C@H](CCC(N)=O)NC(=O)C(C)(C)NC(=O)[C@@H](N)Cc1c[nH]cn1)[C@@H](C)O)[C@@H](C)O)C(C)C)C(=O)N[C@@H](CO)C(=O)N[C@@H](CCCCNC(=O)CC[C@H](NC(=O)CC[C@H](NC(=O)COCCOCCNC(=O)COCCOCCNC(=O)CC[C@H](NC(=O)CCCCCCCCCCCCCCCCC(=O)O)C(=O)O)C(=O)O)C(=O)O)C(N)=O` [Chem. 27, N^ε29-[(4S)-4-carboxy-4-[[(4S)-4-carboxy-4-[[2-[2-[2-[[2-[2-[2-[[(4S)-4-carboxy-4-(17-carboxyheptadecanoylamino)butanoyl]amino]ethoxy]ethoxy]acetyl]amino]ethoxy]ethoxy]acetyl]amino]butanoyl]amino]butanoyl]-[Aib2,Leu10,Ala16,Arg20,Ile27,Ser28,Lys29]-Glucagon amide] (H-H[Aib]QGTFTSDLSKYLDARRARDFVQWLISK([γGlu-γGlu-AEEA-AEEA-γGlu-C18 diacid])-NH2; N-terminus assumed): 0.2 nM; `CC[C@H](C)[C@H](NC(=O)[C@H](CC(C)C)NC(=O)[C@H](Cc1c[nH]c2ccccc12)NC(=O)[C@H](CCC(N)=O)NC(=O)[C@@H](NC(=O)[C@H](Cc1ccccc1)NC(=O)[C@H](CCC(=O)O)NC(=O)[C@H](CCCNC(=N)N)NC(=O)[C@H](C)NC(=O)[C@H](CCCNC(=N)N)NC(=O)[C@H](CCCNC(=N)N)NC(=O)[C@H](C)NC(=O)[C@H](CC(=O)O)NC(=O)[C@H](CC(C)C)NC(=O)[C@H](Cc1ccc(O)cc1)NC(=O)[C@H](CCCCN)NC(=O)[C@H](CO)NC(=O)[C@H](CC(C)C)NC(=O)[C@H](CC(=O)O)NC(=O)[C@H](CO)NC(=O)[C@@H](NC(=O)[C@H](Cc1ccccc1)NC(=O)[C@@H](NC(=O)CNC(=O)[C@H](CCC(N)=O)NC(=O)C(C)(C)NC(=O)[C@@H](N)Cc1c[nH]cn1)[C@@H](C)O)[C@@H](C)O)C(C)C)C(=O)N[C@@H](CO)C(=O)N[C@@H](CCCCNC(=O)CC[C@H](NC(=O)CC[C@H](NC(=O)COCCOCCNC(=O)COCCOCCNC(=O)CC[C@H](NC(=O)CCCCCCCCCCCCCCCCC(=O)O)C(=O)O)C(=O)O)C(=O)O)C(N)=O` [Chem. 28, N^ε29-[(4S)-4-carboxy-4-[[(4S)-4-carboxy-4-[[2-[2-[2-[[2-[2-[2-[[(4S)-4-carboxy-4-(17-carboxyheptadecanoylamino)butanoyl]amino]ethoxy]ethoxy]acetyl]amino]ethoxy]ethoxy]acetyl]amino]butanoyl]amino]butanoyl]-[Aib2,Leu10,Ala16,Arg20,Glu21,Ile27,Ser28,Lys29]-Glucagon amide] (H-H[Aib]QGTFTSDLSKYLDARRAREFVQWLISK([γGlu-γGlu-AEEA-AEEA-γGlu-C18 diacid])-NH2; N-terminus assumed): 0.2 nM. The same measure for `CC[C@H](C)[C@H](NC(=O)[C@H](CC(C)C)NC(=O)[C@H](Cc1c[nH]c2ccccc12)NC(=O)[C@H](C)NC(=O)[C@@H](NC(=O)[C@H](Cc1ccccc1)NC(=O)[C@H](CC(=O)O)NC(=O)[C@H](CCCNC(=N)N)NC(=O)[C@H](C)NC(=O)[C@H](CCCNC(=N)N)NC(=O)[C@H](CCCNC(=N)N)NC(=O)[C@H](C)NC(=O)[C@H](CC(=O)O)NC(=O)[C@H](CC(C)C)NC(=O)[C@H](Cc1ccc(O)cc1)NC(=O)[C@H](CCCCN)NC(=O)[C@H](CO)NC(=O)[C@H](Cc1ccc(O)cc1)NC(=O)[C@H](CC(=O)O)NC(=O)[C@H](CO)NC(=O)[C@@H](NC(=O)[C@H](Cc1ccccc1)NC(=O)[C@@H](NC(=O)CNC(=O)[C@H](CCC(N)=O)NC(=O)C(C)(C)NC(=O)[C@@H](N)Cc1c[nH]cn1)[C@@H](C)O)[C@@H](C)O)C(C)C)C(=O)N[C@@H](CCCCNC(=O)CC[C@H](NC(=O)CC[C@H](NC(=O)COCCOCCNC(=O)COCCOCCNC(=O)CC[C@H](NC(=O)CCCCCCCCCCCCCCCCC(=O)O)C(=O)O)C(=O)O)C(=O)O)C(=O)N[C@H](C(N)=O)[C@@H](C)O` [Chem. 32, N^ε28-[(4S)-4-carboxy-4-[[(4S)-4-carboxy-4-[[2-[2-[2-[[2-[2-[2-[[(4S)-4-carboxy-4-(17-carboxyheptadecanoylamino)butanoyl]amino]ethoxy]ethoxy]acetyl]amino]ethoxy]ethoxy]acetyl]amino]butanoyl]amino]butanoyl]-[Aib2,Ala16,Arg20,Ala24,Ile27,Lys28]-Glucagon amide] (H-H[Aib]QGTFTSDYSKYLDARRARDFVAWLIK([γGlu-γGlu-AEEA-AEEA-γGlu-C18 diacid])T-NH2): 0.3 nM.

The IC50 is the point on the concentration scale where inhibition reaches its midpoint.
